In patent US8513381B2, “Melanocortin analogs with antimicrobial activity” (Fondazione IRCCS Ca' Granda-Ospedale Maggiore Policlinico, priority 2009, dated 2013):
Converted amounts (≈) assume the structure as drawn. Read-outs that look alike come from different tables or passages of the source. Non-standard residues stand in square brackets, D forms with d. Residues, ends and D or L forms follow the SMILES beside them. d2Nal = N[C@H](Cc1ccc2ccccc2c1)C(=O)O; Aic = NC1(C(=O)O)Cc2ccccc2C1; Ac6c = NC1(C(=O)O)CCCCC1; Ac5c = NC1(C(=O)O)CCCC1; Ac4c = NC1(C(=O)O)CCC1

Tests used:
C. glabrata = assay type: cell-based, Candida glabrata
Description: (§1) Two Candida albicans isolates were purchased from the ATCC (No. 24433 and 76615). The other yeast isolates were obtained from the collection of Fondazione Ospedale Maggiore Policlinico, Mangiagalli e Regina Elena, Milano. The collection included C. albicans (7 isolates), C. glabrata (3 isolates), and C. krusei (3 isolates). Antifungal susceptibility testing was performed using the broth microdilution method according to the NCCLS M27-A guidelines (National Committee for Clinical Laboratory Standards. 1997, Reference method for broth dilution antifungal susceptibility testing of yeasts and approved standard NCCLS document M27-A. National Committee for Clinical Laboratory Standards, Wayne, Pa.). The organisms were removed from frozen glycerol stock (10% sterile glycerol suspensions stored at −70° C.), subcultured onto Sabouraud's dextrose plates, and incubated at 35° C. After 48 h of incubation, the plates were inspected for purity. To prepare stationary growth phase yeast, a colony was taken from the agar plate and transferred into 5 mL Sabouraud-dextrose broth and incubated for 48 h at 35° C. Cells were centrifuged at 1,000×g for 10 min and the pellet was washed twice with distilled water. Cells were counted and suspended in RPMI 1640 medium buffered to pH 7.0 with 0.165 mol l^−1 morpholinepropanesulphonic acid (MOPS) buffer (Sigma) to obtain the two times test inoculum (1×10^3 to 5×10^3 CFU/mL). Each well of 96 U-shaped well-plates received 100 μl of each antifungal peptides in concentrations from 10^−4 to 7.8×10^−7 M and 100 μl of the two-times inoculum to a final yeast concentration of 0.5×10−[…] cells ml^−1
(§2) The MIC90, i.e. the minimum inhibitory concentrations endpoint determined as 90% reduction in turbidity measured using a spectrophotometer (Titertek multiscan at 690 nm wave length).

C. krusei = assay type: cell-based, Candida krusei
Description: as §1, §2

C. albicans = assay type: cell-based, Candida albicans
Description: as §1, §2

[1] = test system: Pseudomonas aeruginosa ATCC 27853; assay type: cell-based
Description: (§3) The bacterial strains Pseudomonas aeruginosa ATCC 27853 and Staphylococcus aureus ATCC 29213 were grown in 2% Bacto Peptone water (Difco 1807-17-4) until growth was exponential. A standard microdilution technique with an inoculum of 2×10^6 CFU/mL was used. The minimal inhibitory concentration (MIC) of the peptides was determined in 1% Bacto Peptone water after incubation overnight at 37° C.

[2] = test system: Staphylococcus aureus ATCC 29213; assay type: cell-based
Description: as §3

Compound	MIC 90 at 48 hours (C. glabrata; C. glabrata 18012, 35° C.)	MIC 90 at 48 hours (C. glabrata; C. glabrata 995651, 35° C.)	MIC 90 at 48 hours (C. glabrata; C. glabrata 995667, 35° C.)	MIC 90 at 48 hours (C. krusei; C. krusei 004490, 35° C.)	MIC 90 at 48 hours (C. krusei; C. krusei 991388, 35° C.)	MIC 90 at 48 hours (C. krusei; C. krusei 995668, 35° C.)	MIC 90 at 48 hours (C. albicans; C. albicans 000954, 35° C.)	MIC 90 at 48 hours (C. albicans; C. albicans 011587, 35° C.)	MIC 90 at 48 hours (C. albicans; C. albicans 983201-R1, 35° C.)	MIC 90 at 48 hours (C. albicans; C. albicans 991185, 35° C.)	MIC 90 at 48 hours (C. albicans; C. albicans 994199, 35° C.)	MIC 90 at 48 hours (C. albicans; C. albicans 995147, 35° C.)	MIC 90 at 48 hours (C. albicans; C. albicans 995439, 35° C.)	MIC 90 at 48 hours (C. albicans; C. albicans ATCC 24433, 35° C.)	MIC 90 at 48 hours (C. albicans; C. albicans ATCC 76615, 35° C.)	MIC 90 at 48 hours (C. albicans)	MIC 90 at 48 hours (C. glabrata)	MIC (minimal inhibitory concentration) [1]	MIC (minimal inhibitory concentration) [2]	MIC 90 at 48 hours (C. krusei)
H-His-D(2)-Nal-Arg-Trp-β-AA-Lys-Phe-Val-NH2 [MSH0710]	no	no	no	no	no	no	no	no	no	no	no	no	no	no	no					
CC(C)[C@H](NC(=O)[C@H](Cc1ccccc1)NC(=O)[C@H](CCCCN)NC(=O)C1(NC(=O)[C@H](Cc2c[nH]c3ccccc23)NC(=O)[C@H](CCCNC(=N)N)NC(=O)[C@@H](Cc2ccc3ccccc3c2)NC(=O)[C@@H](N)Cc2c[nH]cn2)CCCCC1)C(N)=O [MSH0712, H-His-D(2)-Nal-Arg-Trp-Aoca-Lys-Phe-Val-NH2] (H-H[d2Nal]RW[Ac6c]KFV-NH2)	no	no	no													60 µg/mL (≈ 50.3 µM)				
CC(C)[C@H](NC(=O)[C@H](Cc1ccccc1)NC(=O)[C@H](CCCCN)NC(=O)C1(NC(=O)[C@H](Cc2c[nH]c3ccccc23)NC(=O)[C@H](CCCNC(=N)N)NC(=O)[C@@H](Cc2ccc3ccccc3c2)NC(=O)[C@@H](N)Cc2c[nH]cn2)Cc2ccccc2C1)C(N)=O [MSH0708, H-His-D(2)-Nal-Arg-Trp-Aic-Lys-Phe-Val-NH2] (H-H[d2Nal]RW[Aic]KFV-NH2)																	123 µg/mL (≈ 100 µM)	61 µg/mL (≈ 49.7 µM)	31 µg/mL (≈ 25.3 µM)	
CC(C)[C@H](NC(=O)[C@H](Cc1ccccc1)NC(=O)[C@H](CCCCN)NC(=O)C1(NC(=O)[C@H](Cc2c[nH]c3ccccc23)NC(=O)[C@H](CCCNC(=N)N)NC(=O)[C@@H](Cc2ccc3ccccc3c2)NC(=O)[C@@H](N)Cc2c[nH]cn2)CCCC1)C(N)=O [MSH0705, H-His-D(2)-Nal-Arg-Trp-Cpa-Lys-Phe-Val-NH2] (H-H[d2Nal]RW[Ac5c]KFV-NH2)	no	no	no																	117 µg/mL (≈ 99.2 µM)
H-His-D(2)-Nal-Arg-Trp-Acpc-Lys-Phe-Val-NH2 [MSH0706]	no	no		no	no	no	no	no	no	no	no	no	no	no	no					
CC(C)[C@H](NC(=O)[C@H](Cc1ccccc1)NC(=O)[C@H](CCCCN)NC(=O)C1(NC(=O)[C@H](Cc2c[nH]c3ccccc23)NC(=O)[C@H](CCCNC(=N)N)NC(=O)[C@@H](Cc2ccc3ccccc3c2)NC(=O)[C@@H](N)Cc2c[nH]cn2)CCC1)C(N)=O [MSH0709, H-His-D(2)-Nal-Arg-Trp-Cybu-Lys-Phe-Val-NH2] (H-H[d2Nal]RW[Ac4c]KFV-NH2)	no	no	no				no		no			no		no	no	117 µg/mL (≈ 100 µM)				117 µg/mL (≈ 100 µM)
